Here are results for 23 molecules from patent US7662831B2, “Tetracyclic indoles as potassium channel modulators” (Wyeth LLC, priority 2006, dated 2010).

In the assay the test system is isolated rat bladder strips. In words: Inhibition of contractions of isolated rat bladder strips (KCl-enhanced contractile activity). To be noted: 15 mM KCl added; for IC50: 0.5 h, isolated Sprague-Dawley rat bladder strips, 30 min challenge per concentration, read-out: IC50 (concentration required to elicit 50% inhibition of pre-drug contractile activity); for % Enhancement of Contractility @ 3 μM / inhibition at 3 µM: isolated rat bladder strips; for inhibition at 3 µM: read-out: % Inhibition of Contractility @ 3 μM. The method, then:
The compounds of the examples were tested to determine their ability to inhibit contractions of isolated rat bladder strips. See Foster, C. D. et al. Br. J. Pharmacol. 97:281-291, 1989; and Fujii, K. et al. Br. J. Pharmacol. 99:779-785, 1990. Malmgren, A. et al. J. Urol. 143:828-834, 1990, each of which are incorporated herein by reference in its entirety.
Male Sprague-Dawley rats (150-200 g) were obtained from ACE animal suppliers. Animals were allowed free access to food and water.
Animals were euthanized by CO2 asphyxiation followed by a bilateral thoracotomy. The bladder was removed into warm (37 deg. C.) physiological salt solution (PSS) of the following composition (mM): NaCl, 118.4; KCl, 4.7; CaCl2, 2.5; MgSO4.7H2O, 1.2; NaHCO3, 24.9; KH2PO4, 1.2; glucose, 11.1; EDTA, 0.023; gassed with 95% O2/5% CO2; pH 7.4. The bladder was opened and then cut into strips 1-2 mm in width and 7-10 mm in length. The strips were subsequently suspended in a 10 ml tissue bath under an initial resting tension of 1.5 g. The strips were held in place by two surgical clips one of which was attached to a fixed hook while the other was attached to an isometric force transducer. […] The carbachol was then washed out and the tissue allowed to relax to its resting level of activity. Following a further thirty minute period of recovery an additional 15 mM KCl was introduced into the tissue bath. This increase in KCl concentration results in a large increase in the amplitude of spontaneous contractions (and initiation of contractions in previously quiescent strips) superimposed upon a small increase in basal tone. Following stabilization of this enhanced level of contractile activity, incremental increases in the concentration of test compound or vehicle were introduced into the tissue bath. Contractile activity was measured for each compound or vehicle concentration during the last minute of a thirty minute challenge.
Isometric force developed by the bladder strips was measured using a force transducer and recorded on a polygraph. Contractile activity was assessed by measuring either the average amplitude of the contractions (baseline to peak force) occurring during a one min period or, preferably, by integrating the contractile activity with respect to time (one minute measuring period).
The percentage inhibition of contractile activity evoked by each concentration of a given test compounds was used to generate a concentration-response curve. The concentration of test compound required to elicit 50% inhibition of pre-drug contractile activity (IC50 concentration) was calculated from this concentration-response curve. The maximum percentage inhibition of contractile activity evoked by a test compound was also recorded for concentrations of test compound <- or 30 uM.

For `CC(C)(C)CC(=O)Nc1cc2c3c(c1)c1c(n3CCC2)CCCCC1` [Example 1, N-5,6,9,10,11,12-hexahydro-4H,8H-cyclohepta[4,5]pyrrolo[3,2,1-ij]quinolin-2-yl-3,3-dimethylbutanamide], the IC50 fell in the range of 30 to 70 nM.
`CC(C)(C)C(=O)Nc1cc2c3c(c1)c1c(n3CCC2)CCCCC1` [Example 2, N-5,6,9,10,11,12-hexahydro-4H,8H-cyclohepta[4,5]pyrrolo[3,2,1-ij]quinolin-2-yl-2,2-dimethylpropanamide]: the “% Enhancement of Contractility @ 3 μM” value is 20-100%.
Turning to `CCCCCC(=O)Nc1cc2c3c(c1)c1c(n3CCC2)CCCCC1` [Example 3, N-5,6,9,10,11,12-hexahydro-4H,8H-cyclohepta[4,5]pyrrolo[3,2,1-ij]quinolin-2-ylhexanamide], the IC50 was 400 to 2600 nM.
Consider `O=C(CCc1ccccc1)Nc1cc2c3c(c1)c1c(n3CCC2)CCCCC1` [Example 4, N-5,6,9,10,11,12-hexahydro-4H,8H-cyclohepta[4,5]pyrrolo[3,2,1-ij]quinolin-2-yl-3-phenylpropanamide], for which the inhibition (in general, the share of the control response that was lost under treatment) at 3 µM lay in the range of 5 to 20%.
With `O=C(Nc1cc2c3c(c1)c1c(n3CCC2)CCCCC1)c1cccs1` [Example 5, N-5,6,9,10,11,12-hexahydro-4H,8H-cyclohepta[4,5]pyrrolo[3,2,1-ij]quinolin-2-ylthiophene-2-carboxamide], the “% Enhancement of Contractility @ 3 μM” value was 60-90%.
`CC(C)CC(=O)Nc1cc2c3c(c1)c1c(n3CCC2)CCCCC1` [Example 6, N-5,6,9,10,11,12-hexahydro-4H,8H-cyclohepta[4,5]pyrrolo[3,2,1-ij]quinolin-2-yl-3-methylbutanamide]: the IC50 was in the range of 80 to 350 nM.
As to `CCC(=O)Nc1cc2c3c(c1)c1c(n3CCC2)CCCCC1` [Example 7, N-5,6,9,10,11,12-hexahydro-4H,8H-cyclohepta[4,5]pyrrolo[3,2,1-ij]quinolin-2-ylpropanamide], the IC50 lay within 400 to 550 nM.
Take `O=C(Nc1cc2c3c(c1)c1c(n3CCC2)CCCCC1)C1CCCCC1` [Example 8, N-5,6,9,10,11,12-hexahydro-4H,8H-cyclohepta[4,5]pyrrolo[3,2,1-ij]quinolin-2-ylcyclohexanecarboxamide]: the “% Enhancement of Contractility @ 3 μM” value was 150-200%.
`CCCCC(=O)Nc1cc2c3c(c1)c1c(n3CCC2)CCCCC1` [Example 9, N-5,6,9,10,11,12-hexahydro-4H,8H-cyclohepta[4,5]pyrrolo[3,2,1-ij]quinolin-2-ylpentanamide]: the IC50 is 50 to 1000 nM.
Same read-out and setting: next, `CC(C)(C)CC(=O)Nc1cc2c3c(c1)c1c(n3CC2)CCCCC1` [Example 10, N-4,5,8,9,10,11-hexahydro-7H-cyclohepta[b]pyrrolo[3,2,1-hi]indol-2-yl-3,3-dimethylbutanamide]: 150 to 350 nM; `CC(=O)Nc1cc2c3c(c1)c1c(n3CC2)CCCCC1` [Example 11, N-4,5,8,9,10,11-hexahydro-7H-cyclohepta[b]pyrrolo[3,2,1-hi]indol-2-ylacetamide]: 650 to 700 nM; `CCCCC(=O)Nc1cc2c3c(c1)c1c(n3CC2)CCCCC1` [Example 12, N-4,5,8,9,10,11-hexahydro-7H-cyclohepta[b]pyrrolo[3,2,1-hi]indol-2-ylpentanamide]: 700 to 1000 nM.
For the molecule `O=C(Cc1ccccc1)Nc1cc2c3c(c1)c1c(n3CC2)CCCCC1` [Example 13, N-4,5,8,9,10,11-hexahydro-7H-cyclohepta[b]pyrrolo[3,2,1-hi]indol-2-yl-2-phenylacetamide], the IC50 lay within 500 to 600 nM.
The same measure, in the same setting: next, `CC(C)CC(=O)Nc1cc2c3c(c1)c1c(n3CC2)CCCCC1` [Example 14, N-4,5,8,9,10,11-hexahydro-7H-cyclohepta[b]pyrrolo[3,2,1-hi]indol-2-yl-3-methylbutanamide]: 800 to 1000 nM; `O=C(CCC1CCCC1)Nc1cc2c3c(c1)c1c(n3CC2)CCCCC1` [Example 15, 3-cyclopentyl-N-4,5,8,9,10,11-hexahydro-7H-cyclohepta[b]pyrrolo[3,2,1-hi]indol-2-ylpropanamide]: 300 to 1200 nM.
For the molecule `CC(C)(C)CC(=O)Nc1cc2c3c(c1)c1c(n3CCC2)CCCC1` [Example 16, N-5,6,8,9,10,11-hexahydro-4H-pyrido[3,2,1-jk]carbazol-2-yl-3,3-dimethylbutanamide], the “% Enhancement of Contractility @ 3 μM” value is listed as 80-100%.
In the case of `CCCCCC(=O)Nc1cc2c3c(c1)c1c(n3CCC2)CCCC1` [Example 17, N-5,6,8,9,10,11-hexahydro-4H-pyrido[3,2,1-jk]carbazol-2-ylhexanamide], the IC50 is 400 to 800 nM.
Still for that read-out and setting: next, `CC(C)CC(=O)Nc1cc2c3c(c1)c1c(n3CCC2)CCCC1` [Example 18, N-5,6,8,9,10,11-hexahydro-4H-pyrido[3,2,1-jk]carbazol-2-yl-3-methylbutanamide]: 500 to 550 nM.
For the molecule `CC(=O)Nc1cc2c3c(c1)c1c(n3CCC2)CCCC1` [Example 19, N-5,6,8,9,10,11-hexahydro-4H-pyrido[3,2,1-jk]carbazol-2-ylacetamide], the IC50 lay in the range of 2000 to 3000 nM.
On the same count and under the same terms, next, `CCCCCC(=O)Nc1cc2c3c(c1)c1c(n3CC2)CCCCCC1` [Example 20, N-4,5,7,8,9,10,11,12-octahydrocycloocta[b]pyrrolo[3,2,1-hi]indol-2-ylhexanamide]: 80 to 550 nM.
The same measure, in the same setting: next, `CC(C)(C)CC(=O)Nc1cc2c3c(c1)c1c(n3CC2)CCCCCC1` [Example 21, 3,3-dimethyl-N-4,5,7,8,9,10,11,12-octahydrocycloocta[b]pyrrolo[3,2,1-hi]indol-2-ylbutanamide]: 160 to 700 nM.
On the same count and under the same terms, the figure for `CCCCCCC(=O)Nc1cc2c3c(c1)c1c(n3CC2)CCCCCC1` [Example 22, N-4,5,7,8,9,10,11,12-octahydrocycloocta[b]pyrrolo[3,2,1-hi]indol-2-ylheptanamide] is 800 to 1000 nM.
As to `CC(C)(C)CC(=O)Nc1cc2c3c(c1)c1c(n3CCC2)C(=O)CCCC1` [Example 23, 3,3-dimethyl-N-(8-oxo-5,6,9,10,11,12-hexahydro-4H,8H-cyclohepta[4,5]pyrrolo[3,2,1-ij]quinolin-2-yl)butanamide], the inhibition at 3 µM lay in the range of 25 to 50%.
